{"source": "the NIST ThermoML archive (doi:10.1021/je200195q)", "assay": "activity coefficient (dimensionless); of the first substance listed, at infinite dilution; xn = mol fraction of the nth substance listed", "settings": "101 kPa, Liquid, Chromatography, x1 = 0", "note": "Numbers after ± are expanded uncertainties."}
{"smiles": "c1ccsc1", "note": "[thiophene] + CCCCn1cc[n+](C)c1.O=S(=O)([N-]S(=O)(=O)C(F)(F)C(F)(F)F)C(F)(F)C(F)(F)F", "values": [{"measurement": "activity coefficient", "setting": "322.55 K", "result": "0.977 ± 0.061"}, {"measurement": "activity coefficient", "setting": "342.75 K", "result": "0.973 ± 0.061"}, {"measurement": "activity coefficient", "setting": "362.65 K", "result": "0.981 ± 0.062"}]}
{"smiles": "CCOCC", "note": "[diethyl ether] + CCCCn1cc[n+](C)c1.O=S(=O)([N-]S(=O)(=O)C(F)(F)C(F)(F)F)C(F)(F)C(F)(F)F", "values": [{"measurement": "activity coefficient", "setting": "322.55 K", "result": "1.72 ± 0.12"}, {"measurement": "activity coefficient", "setting": "342.75 K", "result": "1.7 ± 0.11"}, {"measurement": "activity coefficient", "setting": "362.65 K", "result": "1.65 ± 0.11"}]}
{"smiles": "CCCCCCCCC", "note": "[nonane] + CCCCn1cc[n+](C)c1.O=S(=O)([N-]S(=O)(=O)C(F)(F)C(F)(F)F)C(F)(F)C(F)(F)F", "values": [{"measurement": "activity coefficient", "setting": "322.55 K", "result": "31.5 ± 2.2"}, {"measurement": "activity coefficient", "setting": "342.75 K", "result": "26 ± 1.8"}, {"measurement": "activity coefficient", "setting": "362.65 K", "result": "21.8 ± 1.5"}]}
{"smiles": "CCCCCCCC", "note": "[octane] + CCCCn1cc[n+](C)c1.O=S(=O)([N-]S(=O)(=O)C(F)(F)C(F)(F)F)C(F)(F)C(F)(F)F", "values": [{"measurement": "activity coefficient", "setting": "322.55 K", "result": "20.4 ± 1.4"}, {"measurement": "activity coefficient", "setting": "342.75 K", "result": "17.3 ± 1.2"}, {"measurement": "activity coefficient", "setting": "362.65 K", "result": "15.5 ± 1.1"}]}
{"smiles": "CCCC(C)=O", "note": "[pentan-2-one] + CCn1cc[n+](C)c1.CS(=O)(=O)[O-]", "values": [{"measurement": "activity coefficient", "setting": "312.55 K", "result": "7.79 ± 0.53"}, {"measurement": "activity coefficient", "setting": "322.45 K", "result": "7.7 ± 0.53"}, {"measurement": "activity coefficient", "setting": "332.45 K", "result": "7.57 ± 0.52"}]}
{"smiles": "CC(C)O", "note": "[propan-2-ol] + CCn1cc[n+](C)c1.CS(=O)(=O)[O-]", "values": [{"measurement": "activity coefficient", "setting": "312.55 K", "result": "0.924 ± 0.058"}, {"measurement": "activity coefficient", "setting": "322.45 K", "result": "0.907 ± 0.058"}, {"measurement": "activity coefficient", "setting": "332.45 K", "result": "0.877 ± 0.056"}]}
{"smiles": "CCCO", "note": "[propan-1-ol] + CCCCCC[n+]1ccn(C)c1.FC(F)(F)C(F)(F)[P-](F)(F)(F)(C(F)(F)C(F)(F)F)C(F)(F)C(F)(F)F", "values": [{"measurement": "activity coefficient", "setting": "312.8 K", "result": "2.47 ± 0.17"}, {"measurement": "activity coefficient", "setting": "332.85 K", "result": "1.96 ± 0.13"}, {"measurement": "activity coefficient", "setting": "354.65 K", "result": "1.47 ± 0.096"}]}
{"smiles": "ClCCl", "note": "[dichloromethane] + CCn1cc[n+](C)c1.CS(=O)(=O)[O-]", "values": [{"measurement": "activity coefficient", "setting": "312.55 K", "result": "0.471 ± 0.037"}, {"measurement": "activity coefficient", "setting": "322.45 K", "result": "0.531 ± 0.039"}, {"measurement": "activity coefficient", "setting": "332.45 K", "result": "1.3 ± 0.084"}]}
{"smiles": "CC(C)OC(C)C", "note": "[diisopropyl ether] + CCCCCC[n+]1ccn(C)c1.FC(F)(F)C(F)(F)[P-](F)(F)(F)(C(F)(F)C(F)(F)F)C(F)(F)C(F)(F)F", "values": [{"measurement": "activity coefficient", "setting": "312.8 K", "result": "1.59 ± 0.1"}, {"measurement": "activity coefficient", "setting": "332.85 K", "result": "1.7 ± 0.11"}, {"measurement": "activity coefficient", "setting": "354.65 K", "result": "1.72 ± 0.12"}]}
{"smiles": "CCCCCC", "note": "[hexane] + CCCCCC[n+]1ccn(C)c1.FC(F)(F)C(F)(F)[P-](F)(F)(F)(C(F)(F)C(F)(F)F)C(F)(F)C(F)(F)F", "values": [{"measurement": "activity coefficient", "setting": "312.8 K", "result": "6.39 ± 0.44"}, {"measurement": "activity coefficient", "setting": "332.85 K", "result": "5.69 ± 0.39"}, {"measurement": "activity coefficient", "setting": "354.65 K", "result": "4.41 ± 0.3"}]}
{"smiles": "CCC[N+](=O)[O-]", "note": "[1-nitropropane] + CCCCCC[n+]1ccn(C)c1.FC(F)(F)C(F)(F)[P-](F)(F)(F)(C(F)(F)C(F)(F)F)C(F)(F)C(F)(F)F", "values": [{"measurement": "activity coefficient", "setting": "312.8 K", "result": "0.452 ± 0.036"}, {"measurement": "activity coefficient", "setting": "332.85 K", "result": "0.451 ± 0.036"}, {"measurement": "activity coefficient", "setting": "354.65 K", "result": "0.436 ± 0.035"}]}
{"smiles": "ClC(Cl)(Cl)Cl", "note": "[tetrachloromethane] + CCn1cc[n+](C)c1.CS(=O)(=O)[O-]", "values": [{"measurement": "activity coefficient", "setting": "312.55 K", "result": "4.57 ± 0.31"}, {"measurement": "activity coefficient", "setting": "322.45 K", "result": "4.79 ± 0.33"}, {"measurement": "activity coefficient", "setting": "332.45 K", "result": "0.669 ± 0.045"}]}
{"smiles": "ClCCl", "note": "[dichloromethane] + CCCCn1cc[n+](C)c1.O=S(=O)([N-]S(=O)(=O)C(F)(F)C(F)(F)F)C(F)(F)C(F)(F)F", "values": [{"measurement": "activity coefficient", "setting": "322.55 K", "result": "0.356 ± 0.033"}, {"measurement": "activity coefficient", "setting": "342.75 K", "result": "0.436 ± 0.035"}, {"measurement": "activity coefficient", "setting": "362.65 K", "result": "0.539 ± 0.039"}]}
{"smiles": "CC1CCCC1", "note": "[methylcyclopentane] + CCCCCC[n+]1ccn(C)c1.FC(F)(F)C(F)(F)[P-](F)(F)(F)(C(F)(F)C(F)(F)F)C(F)(F)C(F)(F)F", "values": [{"measurement": "activity coefficient", "setting": "312.8 K", "result": "4.58 ± 0.31"}, {"measurement": "activity coefficient", "setting": "332.85 K", "result": "4.09 ± 0.28"}, {"measurement": "activity coefficient", "setting": "354.65 K", "result": "3.52 ± 0.24"}]}
{"smiles": "ClCCl", "note": "[dichloromethane] + CCCCCCCCCCn1cc[n+](CCCCCCCCCC)c1C.O=S(=O)([N-]S(=O)(=O)C(F)(F)F)C(F)(F)F", "values": [{"measurement": "activity coefficient", "setting": "323.1 K", "result": "0.33 ± 0.032"}, {"measurement": "activity coefficient", "setting": "333.15 K", "result": "0.341 ± 0.032"}, {"measurement": "activity coefficient", "setting": "343.15 K", "result": "0.351 ± 0.032"}]}
{"smiles": "CCC=O", "note": "[propanal] + CCCCCC[n+]1ccn(C)c1.FC(F)(F)C(F)(F)[P-](F)(F)(F)(C(F)(F)C(F)(F)F)C(F)(F)C(F)(F)F", "values": [{"measurement": "activity coefficient", "setting": "312.8 K", "result": "0.274 ± 0.03"}, {"measurement": "activity coefficient", "setting": "332.85 K", "result": "0.283 ± 0.03"}, {"measurement": "activity coefficient", "setting": "354.65 K", "result": "0.285 ± 0.031"}]}
{"smiles": "CCCCO", "note": "[butan-1-ol] + CCCCCC[n+]1ccn(C)c1.FC(F)(F)C(F)(F)[P-](F)(F)(F)(C(F)(F)C(F)(F)F)C(F)(F)C(F)(F)F", "values": [{"measurement": "activity coefficient", "setting": "312.8 K", "result": "4.9 ± 0.33"}, {"measurement": "activity coefficient", "setting": "332.85 K", "result": "2.32 ± 0.16"}, {"measurement": "activity coefficient", "setting": "354.65 K", "result": "1.76 ± 0.12"}]}
